# Results taken from US10072017B2, “Compounds and methods for the treatment of cystic fibrosis” (Flatley Discovery Lab, LLC, priority 2015, dated 2018).
# Target: T1, CFTR (Homo sapiens, UniProt P13569, DEL508-508)
# T1 construct: Primary CF airway epithelial cells were obtained from the UNC Cystic Fibrosis Tissue Procurement and Cell Culture Core; host or cells: primary CF airway epithelial cells
# Assay: Equivalent current assay in Primary CF airway epithelial cells (NAUC)
# Format: cell-based
# Conditions: 24 h, normalized to VX809 (3 μM) positive control; for Nauc @ 3 μM: 3 μM test compound; for Nauc @ 10 μM: 10 μM test compound
# Method in brief: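 Primary CF airway epithelia differentiated ≥4 weeks at air-liquid interface, treated basolaterally 24 h at 37 °C with test compounds in combination with VX809, 0.1% DMSO vehicle. Equivalent current recorded after 5 μM benzamil, 10 μM forskolin plus 1 μM VX770, then CFTR-172/bumetanide 20 μM; vehicle-subtracted AUC normalized to 3 μM VX809 (NAUC), median of n≥4, sigmoid fit for EC50.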
# T1 sequence (P13569 with tags, fused parts or gaps DEL508-508): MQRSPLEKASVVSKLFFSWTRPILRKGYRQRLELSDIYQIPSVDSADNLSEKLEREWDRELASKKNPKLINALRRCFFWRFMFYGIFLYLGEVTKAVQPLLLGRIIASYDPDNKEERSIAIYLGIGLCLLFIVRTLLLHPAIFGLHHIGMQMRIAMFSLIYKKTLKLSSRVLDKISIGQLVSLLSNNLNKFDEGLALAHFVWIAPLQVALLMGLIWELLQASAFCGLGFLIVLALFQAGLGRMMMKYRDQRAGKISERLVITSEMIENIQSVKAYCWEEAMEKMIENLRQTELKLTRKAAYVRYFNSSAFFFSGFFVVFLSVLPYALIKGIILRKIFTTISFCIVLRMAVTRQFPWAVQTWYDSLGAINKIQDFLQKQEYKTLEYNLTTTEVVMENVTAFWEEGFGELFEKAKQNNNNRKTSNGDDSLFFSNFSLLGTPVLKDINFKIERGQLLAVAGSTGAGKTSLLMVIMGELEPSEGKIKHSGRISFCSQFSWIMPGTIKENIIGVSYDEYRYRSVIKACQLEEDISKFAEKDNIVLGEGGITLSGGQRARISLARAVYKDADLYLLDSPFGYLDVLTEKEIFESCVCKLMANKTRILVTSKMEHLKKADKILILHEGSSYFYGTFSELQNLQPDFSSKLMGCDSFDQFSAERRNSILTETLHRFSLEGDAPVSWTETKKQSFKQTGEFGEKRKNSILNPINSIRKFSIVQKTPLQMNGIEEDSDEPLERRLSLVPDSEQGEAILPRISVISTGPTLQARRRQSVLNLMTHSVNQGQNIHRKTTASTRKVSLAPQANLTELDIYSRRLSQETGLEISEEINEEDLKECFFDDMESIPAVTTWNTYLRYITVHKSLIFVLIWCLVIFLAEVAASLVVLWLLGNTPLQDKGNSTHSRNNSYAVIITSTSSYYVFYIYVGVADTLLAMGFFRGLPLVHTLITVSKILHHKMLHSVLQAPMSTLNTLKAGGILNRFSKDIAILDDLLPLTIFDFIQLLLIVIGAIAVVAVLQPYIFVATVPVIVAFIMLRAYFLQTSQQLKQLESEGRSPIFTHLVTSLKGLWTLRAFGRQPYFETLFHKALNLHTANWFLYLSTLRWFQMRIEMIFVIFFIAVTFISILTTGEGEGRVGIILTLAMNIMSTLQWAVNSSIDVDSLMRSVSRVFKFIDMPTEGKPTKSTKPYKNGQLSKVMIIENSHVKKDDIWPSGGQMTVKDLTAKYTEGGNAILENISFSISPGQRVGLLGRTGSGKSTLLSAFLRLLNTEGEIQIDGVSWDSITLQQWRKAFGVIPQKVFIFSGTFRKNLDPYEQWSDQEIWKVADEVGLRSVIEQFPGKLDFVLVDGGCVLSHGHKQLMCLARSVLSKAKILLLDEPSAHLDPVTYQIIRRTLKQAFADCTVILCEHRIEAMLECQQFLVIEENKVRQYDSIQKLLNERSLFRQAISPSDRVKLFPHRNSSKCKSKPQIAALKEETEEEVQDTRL
Compound,Nauc @ 3 μM,Nauc @ 10 μM
CC(C)(C)NC(=O)N[C@H]1CC2C3C(=O)N(c4cc(Cl)cc(Cl)c4)C(=O)C3C3(C(=O)Nc4c(Cl)cc(Cl)cc43)N2C1 (stereo partly drawn) [Example 153],+ (NAUC “+” refers to an observed NAUC <140% of positive control),++ (NAUC “++” refers to an observed NAUC 170-140% of positive control)
O=C1C2C(Cc3ccccc3)NC3(C(=O)Nc4c(Cl)cc(Cl)cc43)C2C(=O)N1c1cc(Cl)cc(Cl)c1 (stereo not drawn) [Example 154],+++ (NAUC “+++” refers to an observed NAUC >170% of positive control),+++ (NAUC “+++” refers to an observed NAUC >170% of positive control)
O=C1C2C(Cc3c[nH]c4ccccc34)NC3(C(=O)Nc4c(Cl)cc(Cl)cc43)C2C(=O)N1c1cc(Cl)cc(Cl)c1 (stereo not drawn) [Example 155],++ (NAUC “++” refers to an observed NAUC 170-140% of positive control),+ (NAUC “+” refers to an observed NAUC <140% of positive control)
C[C@]1(O)CC2C3C(=O)N(c4cc(Cl)cc(Cl)c4)C(=O)C3C3(C(=O)Nc4c(Cl)cc(Cl)cc43)N2C1 (stereo partly drawn) [Example 156],++ (NAUC “++” refers to an observed NAUC 170-140% of positive control),+++ (NAUC “+++” refers to an observed NAUC >170% of positive control)
O=C(O)CC1NC2(C(=O)Nc3c(Cl)cc(Cl)cc32)C2C(=O)N(c3cc(Cl)cc(Cl)c3)C(=O)C12 (stereo not drawn) [Example 157],+++ (NAUC “+++” refers to an observed NAUC >170% of positive control),+ (NAUC “+” refers to an observed NAUC <140% of positive control)
COc1cc(Cl)cc(N2C(=O)C3C4C[C@](C)(O)CN4C4(C(=O)Nc5c(Cl)cc(Cl)cc54)C3C2=O)c1 (stereo partly drawn) [Example 158],++ (NAUC “++” refers to an observed NAUC 170-140% of positive control),+++ (NAUC “+++” refers to an observed NAUC >170% of positive control)
COc1c(Cl)cc(N2C(=O)C3C4C[C@](C)(O)CN4C4(C(=O)Nc5c(Cl)cc(Cl)cc54)C3C2=O)cc1Cl (stereo partly drawn) [Example 159],+++ (NAUC “+++” refers to an observed NAUC >170% of positive control),+++ (NAUC “+++” refers to an observed NAUC >170% of positive control)
COc1cc(Cl)cc(N2C(=O)C3C4C[C@](C)(F)CN4C4(C(=O)Nc5c(Cl)cc(Cl)cc54)C3C2=O)c1 (stereo partly drawn) [Example 160],+ (NAUC “+” refers to an observed NAUC <140% of positive control),++ (NAUC “++” refers to an observed NAUC 170-140% of positive control)
N=C(N)NCCCC1NC2(C(=O)Nc3c(Cl)cc(Cl)cc32)C2C(=O)N(c3cc(Cl)cc(Cl)c3)C(=O)C12 (stereo not drawn) [Example 163],++ (NAUC “++” refers to an observed NAUC 170-140% of positive control),+ (NAUC “+” refers to an observed NAUC <140% of positive control)
CC(C)CC1NC2(C(=O)Nc3c(Cl)cc(Cl)cc32)C2C(=O)N(c3cc(Cl)cc(Cl)c3)C(=O)C12 (stereo not drawn) [Example 164],++ (NAUC “++” refers to an observed NAUC 170-140% of positive control),+++ (NAUC “+++” refers to an observed NAUC >170% of positive control)
O=C1C2C(CO)NC3(C(=O)Nc4c(Cl)cc(Cl)cc43)C2C(=O)N1c1cc(Cl)cc(Cl)c1 (stereo not drawn) [Example 165],++ (NAUC “++” refers to an observed NAUC 170-140% of positive control),++ (NAUC “++” refers to an observed NAUC 170-140% of positive control)
CC(O)C1NC2(C(=O)Nc3c(Cl)cc(Cl)cc32)C2C(=O)N(c3cc(Cl)cc(Cl)c3)C(=O)C12 (stereo not drawn) [Example 166],++ (NAUC “++” refers to an observed NAUC 170-140% of positive control),++ (NAUC “++” refers to an observed NAUC 170-140% of positive control)
COC1(OC)CC2C3C(=O)N(c4cc(Cl)cc(Cl)c4)C(=O)C3C3(C(=O)Nc4c(Cl)cc(Cl)cc43)N2C1 (stereo not drawn) [Example 167],+ (NAUC “+” refers to an observed NAUC <140% of positive control),++ (NAUC “++” refers to an observed NAUC 170-140% of positive control)
COc1c(Cl)cc(N2C(=O)C3C4CC(OC)(OC)CN4C4(C(=O)Nc5c(Cl)cc(Cl)cc54)C3C2=O)cc1Cl (stereo not drawn) [Example 168],+ (NAUC “+” refers to an observed NAUC <140% of positive control),++ (NAUC “++” refers to an observed NAUC 170-140% of positive control)
O=C1C2C3CC4(CN3C3(C(=O)Nc5c(Cl)cc(Cl)cc53)C2C(=O)N1c1cc(Cl)cc(Cl)c1)OCCO4 (stereo not drawn) [Example 169],+ (NAUC “+” refers to an observed NAUC <140% of positive control),++ (NAUC “++” refers to an observed NAUC 170-140% of positive control)
C[C@]1(O)CC2C3C(=O)N(c4cc(Cl)cc(Cl)c4)C(=O)C3C3(C(=O)Nc4c(Cl)cc(Cl)cc43)N2C1 (stereo partly drawn) [Example 171],+++ (NAUC “+++” refers to an observed NAUC >170% of positive control),+++ (NAUC “+++” refers to an observed NAUC >170% of positive control)
C[C@]1(O)CC2C3C(=O)N(c4cc(Cl)cc(Cl)n4)C(=O)C3C3(C(=O)Nc4c(Cl)cc(Cl)cc43)N2C1 (stereo partly drawn) [Example 172],++ (NAUC “++” refers to an observed NAUC 170-140% of positive control),+++ (NAUC “+++” refers to an observed NAUC >170% of positive control)
C[C@@]1(F)CC2C3C(=O)N(c4cc(Cl)cc(Cl)n4)C(=O)C3C3(C(=O)Nc4c(Cl)cc(Cl)cc43)N2C1 (stereo partly drawn) [Example 173],+++ (NAUC “+++” refers to an observed NAUC >170% of positive control),+++ (NAUC “+++” refers to an observed NAUC >170% of positive control)
O=C1C2C3CC4(CC4)CN3C3(C(=O)Nc4c(Cl)cc(Cl)cc43)C2C(=O)N1c1cc(Cl)cc(Cl)c1 (stereo not drawn) [Example 174],+++ (NAUC “+++” refers to an observed NAUC >170% of positive control),+++ (NAUC “+++” refers to an observed NAUC >170% of positive control)
CC1(C)CC2C3C(=O)N(c4cc(Cl)cc(Cl)n4)C(=O)C3C3(C(=O)Nc4c(Cl)cc(Cl)cc43)N2C1 (stereo not drawn) [Example 175],+++ (NAUC “+++” refers to an observed NAUC >170% of positive control),+++ (NAUC “+++” refers to an observed NAUC >170% of positive control)
CC1(C)CC2C3C(=O)N(c4cc(Cl)cc(Cl)n4)C(=O)C3C3(C(=O)Nc4c(Cl)cc(Cl)cc43)N2C1 (stereo not drawn) [Example 176],++ (NAUC “++” refers to an observed NAUC 170-140% of positive control),++ (NAUC “++” refers to an observed NAUC 170-140% of positive control)
COc1c(Cl)cc(N2C(=O)C3C4CC5(CC5)CN4C4(C(=O)Nc5c(Cl)cc(Cl)cc54)C3C2=O)cc1Cl (stereo not drawn) [Example 177],++ (NAUC “++” refers to an observed NAUC 170-140% of positive control),+++ (NAUC “+++” refers to an observed NAUC >170% of positive control)
O=C1C2C(Cc3ccccc3F)NC3(C(=O)Nc4c(Cl)cc(Cl)cc43)C2C(=O)N1c1cc(Cl)cc(Cl)c1 (stereo not drawn) [Example 181],+++ (NAUC “+++” refers to an observed NAUC >170% of positive control),+++ (NAUC “+++” refers to an observed NAUC >170% of positive control)
Cc1cccc(N2C(=O)C3C4CCCN4C4(C(=O)Nc5c(Cl)cc(Cl)cc54)C3C2=O)n1 (stereo not drawn) [Example 183],++ (NAUC “++” refers to an observed NAUC 170-140% of positive control),+ (NAUC “+” refers to an observed NAUC <140% of positive control)
O=C1C2C3CC4(CC4)CN3C3(C(=O)Nc4c(Cl)cc(Cl)cc43)C2C(=O)N1c1cc(Cl)cc(Cl)n1 (stereo not drawn) [Example 184],+++ (NAUC “+++” refers to an observed NAUC >170% of positive control),+++ (NAUC “+++” refers to an observed NAUC >170% of positive control)
[2H]C([2H])([2H])C1(C([2H])([2H])[2H])CC2C3C(=O)N(c4cc(Cl)cc(Cl)c4)C(=O)C3C3(C(=O)Nc4c(Cl)cc(Cl)cc43)N2C1 (stereo not drawn) [Example 185],+++ (NAUC “+++” refers to an observed NAUC >170% of positive control),+++ (NAUC “+++” refers to an observed NAUC >170% of positive control)
N#Cc1ccccc1CC1NC2(C(=O)Nc3c(Cl)cc(Cl)cc32)C2C(=O)N(c3cc(Cl)cc(Cl)c3)C(=O)C12 (stereo not drawn) [Example 186],+ (NAUC “+” refers to an observed NAUC <140% of positive control),+++ (NAUC “+++” refers to an observed NAUC >170% of positive control)
O=C1C2C(Cc3cccc(Cl)c3)NC3(C(=O)Nc4c(Cl)cc(Cl)cc43)C2C(=O)N1c1cc(Cl)cc(Cl)c1 (stereo not drawn) [Example 187],+++ (NAUC “+++” refers to an observed NAUC >170% of positive control),++ (NAUC “++” refers to an observed NAUC 170-140% of positive control)
O=C1C2C(Cc3ccccc3O)NC3(C(=O)Nc4c(Cl)cc(Cl)cc43)C2C(=O)N1c1cc(Cl)cc(Cl)c1 (stereo not drawn) [Example 188],+ (NAUC “+” refers to an observed NAUC <140% of positive control),+++ (NAUC “+++” refers to an observed NAUC >170% of positive control)
N#Cc1ccc(CC2NC3(C(=O)Nc4c(Cl)cc(Cl)cc43)C3C(=O)N(c4cc(Cl)cc(Cl)c4)C(=O)C23)cc1 (stereo not drawn) [Example 189],+ (NAUC “+” refers to an observed NAUC <140% of positive control),+++ (NAUC “+++” refers to an observed NAUC >170% of positive control)
